Common to all, as to assay type: biochemical
Experiment [1] concerns the target T1, recombinant human PREP (rhPREP) (Homo sapiens, UniProt P48147).
T1 sequence (P48147 1-710): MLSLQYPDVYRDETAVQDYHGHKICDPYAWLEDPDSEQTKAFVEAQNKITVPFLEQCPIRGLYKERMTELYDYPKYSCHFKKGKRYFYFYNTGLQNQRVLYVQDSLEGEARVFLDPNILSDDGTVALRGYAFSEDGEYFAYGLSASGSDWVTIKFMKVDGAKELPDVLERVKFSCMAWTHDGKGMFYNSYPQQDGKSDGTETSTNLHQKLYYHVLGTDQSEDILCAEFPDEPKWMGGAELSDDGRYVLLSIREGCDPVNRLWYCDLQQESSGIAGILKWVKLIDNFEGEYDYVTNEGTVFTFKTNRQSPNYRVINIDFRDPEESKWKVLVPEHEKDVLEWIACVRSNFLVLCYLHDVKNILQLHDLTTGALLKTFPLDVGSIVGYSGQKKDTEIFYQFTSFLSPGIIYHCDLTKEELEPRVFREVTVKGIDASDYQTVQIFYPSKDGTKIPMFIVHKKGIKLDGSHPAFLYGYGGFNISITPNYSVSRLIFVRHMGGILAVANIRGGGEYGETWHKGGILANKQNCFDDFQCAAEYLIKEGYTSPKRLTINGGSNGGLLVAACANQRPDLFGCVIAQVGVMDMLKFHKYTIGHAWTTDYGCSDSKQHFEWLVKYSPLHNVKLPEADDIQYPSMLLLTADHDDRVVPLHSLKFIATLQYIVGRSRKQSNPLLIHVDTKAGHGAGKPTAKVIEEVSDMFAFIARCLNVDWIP
The experiment in a line: PREP enzymatic activity assay, Z-Gly-Pro-AMC.

The target in experiment [2] is T2, recombinant human DPP9 (rhDPP9) (Homo sapiens, UniProt Q86TI2).
T2 construct: purchased R&S system / R&D systems (both sic) 5419-SE
The experiment in a line: DPP9 inhibition assay, 10 ng rhDPP9, Tris-HCl/BSA buffer. The settings on record: Table 3B.

For experiment [3], the target named is T3, recombinant human DPPIV (rhDPPIV) (Homo sapiens, UniProt P27487).
T3 construct: purchased R&S system (so in the source)
The experiment is described as follows: DPPIV enzymatic activity assay, H-Gly-Pro-pNA.

The target of experiment [4] is T4, recombinant human FAPα (rhFAPα) (Homo sapiens, UniProt Q12884).
T4 construct: purchased R&S system (so in the source)
T4 sequence (Q12884 1-760): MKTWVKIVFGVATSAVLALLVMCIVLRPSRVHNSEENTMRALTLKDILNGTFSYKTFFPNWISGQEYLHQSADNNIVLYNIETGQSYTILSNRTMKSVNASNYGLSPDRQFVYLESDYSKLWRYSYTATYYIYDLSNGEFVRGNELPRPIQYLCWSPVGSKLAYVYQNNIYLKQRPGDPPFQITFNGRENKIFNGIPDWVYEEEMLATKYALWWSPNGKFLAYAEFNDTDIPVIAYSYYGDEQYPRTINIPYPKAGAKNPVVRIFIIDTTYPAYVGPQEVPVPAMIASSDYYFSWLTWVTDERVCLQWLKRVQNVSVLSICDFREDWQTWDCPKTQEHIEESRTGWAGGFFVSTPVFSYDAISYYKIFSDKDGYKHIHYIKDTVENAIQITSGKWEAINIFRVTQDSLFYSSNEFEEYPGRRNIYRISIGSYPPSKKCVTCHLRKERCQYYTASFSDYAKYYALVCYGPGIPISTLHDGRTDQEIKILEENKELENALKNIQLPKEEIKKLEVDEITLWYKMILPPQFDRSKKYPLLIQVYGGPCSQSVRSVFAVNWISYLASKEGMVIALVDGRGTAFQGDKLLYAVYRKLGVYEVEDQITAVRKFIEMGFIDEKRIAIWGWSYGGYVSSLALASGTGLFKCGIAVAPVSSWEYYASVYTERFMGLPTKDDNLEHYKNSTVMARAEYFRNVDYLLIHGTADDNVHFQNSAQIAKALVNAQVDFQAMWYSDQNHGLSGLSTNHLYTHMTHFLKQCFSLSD
The experiment in a line: FAPα enzymatic exopeptidase (dipeptidase) activity assay, Z-Gly-Pro-AMC. Conditions: for inhibition at 1 µM: exopeptidase inhibition at 1 μM test compound.

Experiment [5] has as its target T2, recombinant human DPP9 (rhDPP9). The experiment in a line: DPP9 enzymatic activity assay, 40 ng rhDPP9, HEPES buffer. Conditions: Table 3A.
The mark [6] stands for this setting: Table 2, read-out: rhFAPα (% exo inh @ 1 μM).
Where [7] appears, read: Table 3B, read-out: rhFAPα % exo inh @ 1 μM.
The mark [8] stands for this setting: exopeptidase, Table 2, read-out: rhFAPα (exo IC50).
The mark [9] stands for this setting: exopeptidase, Table 3A, read-out: rhFAPα (exo IC50).

The structures appear in SMILES notation. Read-outs that look alike come from different tables or passages of the source.

T2 sequence (Q86TI2 whole entry): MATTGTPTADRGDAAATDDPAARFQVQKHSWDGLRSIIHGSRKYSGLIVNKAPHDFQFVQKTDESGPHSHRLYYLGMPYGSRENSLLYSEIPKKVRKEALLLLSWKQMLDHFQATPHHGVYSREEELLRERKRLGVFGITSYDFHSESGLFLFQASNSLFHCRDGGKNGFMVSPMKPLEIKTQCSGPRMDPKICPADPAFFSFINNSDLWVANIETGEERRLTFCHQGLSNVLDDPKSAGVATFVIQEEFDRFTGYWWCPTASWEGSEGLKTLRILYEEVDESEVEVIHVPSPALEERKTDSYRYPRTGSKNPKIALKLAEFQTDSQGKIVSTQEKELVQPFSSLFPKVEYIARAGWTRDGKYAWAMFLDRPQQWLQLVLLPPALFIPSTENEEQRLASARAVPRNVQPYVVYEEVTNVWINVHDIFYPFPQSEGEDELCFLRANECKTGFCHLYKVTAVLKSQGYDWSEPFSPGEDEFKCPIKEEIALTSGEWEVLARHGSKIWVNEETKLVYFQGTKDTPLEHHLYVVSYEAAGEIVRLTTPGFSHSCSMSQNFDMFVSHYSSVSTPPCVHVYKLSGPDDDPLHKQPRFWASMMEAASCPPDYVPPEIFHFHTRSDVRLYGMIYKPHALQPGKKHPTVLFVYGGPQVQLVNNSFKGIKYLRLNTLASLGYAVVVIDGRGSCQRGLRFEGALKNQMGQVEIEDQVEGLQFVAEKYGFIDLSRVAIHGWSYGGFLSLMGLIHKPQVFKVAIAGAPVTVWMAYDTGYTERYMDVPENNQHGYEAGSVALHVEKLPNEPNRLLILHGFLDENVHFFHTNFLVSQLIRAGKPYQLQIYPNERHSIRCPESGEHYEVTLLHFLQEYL
T3 sequence (P27487 whole entry): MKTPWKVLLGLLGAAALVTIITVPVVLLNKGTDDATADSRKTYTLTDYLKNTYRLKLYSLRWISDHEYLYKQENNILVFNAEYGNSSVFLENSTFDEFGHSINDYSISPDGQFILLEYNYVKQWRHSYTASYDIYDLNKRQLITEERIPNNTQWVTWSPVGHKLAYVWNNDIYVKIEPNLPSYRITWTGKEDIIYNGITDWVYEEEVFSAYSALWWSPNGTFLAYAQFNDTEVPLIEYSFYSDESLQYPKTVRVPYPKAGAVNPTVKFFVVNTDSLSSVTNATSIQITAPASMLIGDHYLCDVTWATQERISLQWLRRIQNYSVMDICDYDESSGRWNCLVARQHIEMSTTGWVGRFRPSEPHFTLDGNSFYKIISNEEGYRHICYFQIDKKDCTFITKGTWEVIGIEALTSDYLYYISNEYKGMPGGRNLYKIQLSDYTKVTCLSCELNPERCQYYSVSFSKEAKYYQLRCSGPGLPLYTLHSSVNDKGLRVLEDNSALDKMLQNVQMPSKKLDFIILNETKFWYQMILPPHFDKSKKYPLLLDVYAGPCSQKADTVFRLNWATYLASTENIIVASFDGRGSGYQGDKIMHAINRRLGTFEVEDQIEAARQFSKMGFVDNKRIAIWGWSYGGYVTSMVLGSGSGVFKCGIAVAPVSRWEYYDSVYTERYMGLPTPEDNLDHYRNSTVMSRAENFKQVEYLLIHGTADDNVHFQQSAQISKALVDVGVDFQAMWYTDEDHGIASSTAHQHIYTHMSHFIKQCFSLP

Take `N#C[C@@H]1CC(F)(F)CN1C(=O)CNC(=O)c1ccncc1NC(=O)Cc1ccccc1` [Compound 1, (S)—N-(2-(2-cyano-4,4-difluoropyrrolidin-1-yl)-2-oxoethyl)-3-(2-phenylacetamido)isonicotinamide]: the half-maximal inhibitory concentration (IC50) in experiment [1] (Table 3A) was more than 10 µM; in experiment [1] (Table 3B) it was more than 10 µM; in experiment [2] it was 1 to 10 µM; in experiment [3] (Table 3A) it was more than 10 µM; in experiment [3] (Table 3B) it was more than 10 µM; in experiment [4] (Table 3B, read-out: rhFAP IC50), less than 1 µM. Further, the concentration for half-maximal inhibition (IC50) is less than 1 µM in experiment [4] (setting [8]), less than 1 µM in experiment [4] (setting [9]) and more than 10 µM in experiment [5]. In addition, the inhibition at 1 µM in experiment [4] (setting [6]) and in experiment [4] (setting [7]) was more than 50% throughout.

As for `CC(Nc1cnccc1C(=O)NCC(=O)N1CC(F)(F)C[C@H]1C#N)c1ccc(F)cc1` (stereo partly drawn) [Compound 4, N-(2-((S)-2-cyano-4,4-difluoropyrrolidin-1-yl)-2-oxoethyl)-3-((1-(4-fluorophenyl)ethyl)amino)isonicotinamide], the IC50 is more than 10 µM in experiment [1] (Table 3A); more than 10 µM in experiment [1] (Table 3B); 1 to 10 µM in experiment [2]; 1 to 10 µM in experiment [3] (Table 3A); 1 to 10 µM in experiment [3] (Table 3B); less than 1 µM in experiment [4] (Table 3B, read-out: rhFAP IC50). Besides, the IC50 is less than 1 µM in experiment [4] (setting [8]), less than 1 µM in experiment [4] (setting [9]) and more than 10 µM in experiment [5]. Besides, the inhibition at 1 µM in experiment [4] (setting [6]) and in experiment [4] (setting [7]) was more than 50% each time.

For `N#C[C@@H]1CC(F)(F)CN1C(=O)CNC(=O)c1ccncc1CCc1ccc(Cl)cc1` [Compound 10, (S)-3-(4-chlorophenethyl)-N-(2-(2-cyano-4,4-difluoropyrrolidin-1-yl)-2-oxoethyl)isonicotinamide], the IC50 was 1 to 10 µM in experiment [1] (Table 3A); 1 to 10 µM in experiment [1] (Table 3B); 1 to 10 µM in experiment [2]; 1 to 10 µM in experiment [3] (Table 3A); 1 to 10 µM in experiment [3] (Table 3B); less than 1 µM in experiment [4] (Table 3B, read-out: rhFAP IC50). Moreover, the concentration for half-maximal inhibition (IC50) is less than 1 µM in experiment [4] (setting [8]), less than 1 µM in experiment [4] (setting [9]) and 1 to 10 µM in experiment [5]. Besides, the inhibition at 1 µM in experiment [4] (setting [6]) and in experiment [4] (setting [7]) was more than 50% throughout.

As to `N#C[C@@H]1CC(F)(F)CN1C(=O)CNC(=O)c1ccncc1CCc1ccc(F)cc1` [Compound 11, (S)—N-(2-(2-cyano-4,4-difluoropyrrolidin-1-yl)-2-oxoethyl)-3-(4-fluorophenethyl)isonicotinamide], the IC50 in experiment [1] (Table 3A) is 1 to 10 µM; in experiment [1] (Table 3B), 1 to 10 µM; in experiment [2], 1 to 10 µM; in experiment [3] (Table 3A), more than 10 µM; in experiment [3] (Table 3B), more than 10 µM; in experiment [4] (Table 3B, read-out: rhFAP IC50), less than 1 µM. The IC50 in experiment [4] (setting [8]) was less than 1 µM; in experiment [4] (setting [9]), less than 1 µM; in experiment [5], 1 to 10 µM. In addition, the inhibition at 1 µM in experiment [4] (setting [6]) and in experiment [4] (setting [7]) was more than 50% throughout.

With `N#C[C@@H]1CC(F)(F)CN1C(=O)CNC(=O)c1ccncc1/C=C/c1ccc(F)cc1` [Compound 12, (S,E)-N-(2-(2-cyano-4,4-difluoropyrrolidin-1-yl)-2-oxoethyl)-3-(4-fluorostyryl)isonicotinamide], the IC50 in experiment [1] (Table 3A) was more than 10 µM; in experiment [1] (Table 3B), more than 10 µM; in experiment [2], 1 to 10 µM; in experiment [3] (Table 3A), 1 to 10 µM; in experiment [3] (Table 3B), 1 to 10 µM; in experiment [4] (Table 3B, read-out: rhFAP IC50) it was less than 1 µM. In addition, the IC50 was less than 1 µM in experiment [4] (setting [8]), less than 1 µM in experiment [4] (setting [9]) and 1 to 10 µM in experiment [5]. The inhibition at 1 µM in experiment [4] (setting [6]) and in experiment [4] (setting [7]) was more than 50% each time.

Turning to `C/C(=C\c1cnccc1C(=O)NCC(=O)N1CC(F)(F)C[C@H]1C#N)c1ccc(F)cc1` [Compound 13, (S,E)-N-(2-(2-cyano-4,4-difluoropyrrolidin-1-yl)-2-oxoethyl)-3-(2-(4-fluorophenyl)prop-1-en-1-yl)isonicotinamide], the half-inhibitory concentration (IC50) in experiment [1] (Table 3A) is more than 10 µM; in experiment [1] (Table 3B), more than 10 µM; in experiment [2] it was 1 to 10 µM; in experiment [3] (Table 3A) it was more than 10 µM; in experiment [3] (Table 3B), more than 10 µM; in experiment [4] (Table 3B, read-out: rhFAP IC50) it was less than 1 µM. The IC50 is less than 1 µM in experiment [4] (setting [8]), less than 1 µM in experiment [4] (setting [9]) and 1 to 10 µM in experiment [5]. Also, the inhibition at 1 µM in experiment [4] (setting [6]) and in experiment [4] (setting [7]) was more than 50% each time.

Usually IC50 stands for the concentration at which inhibition is half-maximal.

These data come from patent publication US20200216417A1, “INHIBITORS OF FIBROBLAST ACTIVATION PROTEIN” (Praxis Biotech LLC, priority 2019, published 2020).
